{
  "source": "patent US20170304336A1",
  "about": "“COMBINATION” (priority 2014, published 2017)",
  "key": {"[1]": {"experiment": "Mass coefficients of organs (pancreas, liver, kidneys) of rats", "format": "in vivo, male rats of Wistar line", "conditions": "for weight coefficient, Kidneys / weight coefficient, Liver: in %", "procedure": "To calculate mass coefficients the pancreas, liver and kidneys of the animals were extracted. The organs were weighed and the mass coefficients were calculated by the following formula:\nMass coefficient=(organ weight/animal body weight)×100%"}, "[2]": {"experiment": "Dynamics of body weight of rabbits (Schemes A and B)", "format": "in vivo, male rabbits of Californian breed", "conditions": "for Body weight: Scheme A, M ± SEM", "from_the_text": "The animals used in this experiment were involved reproductive male rabbits of Californian breed. 144 rabbits were used. The weight of the animals at the beginning of the trial ranged from 2.5 to 3 kg; the animals were 8 weeks old. Before the study the laboratory animals were contained for 27 and for 37 days in the separate coops for adaptation. During this period, clinical condition of animals was controlled every day by visual inspection. The criteria of the inclusion of animals in the experiment were health and body weight.\nThe introduction of drugs under two schemes was used to determine the mechanism of action of the studied drugs and the impact on the different stages of atherosclerosis.\nCholesterol administered daily in an oil solution at 0.3 g/kg of animal body weight, one time, 4 hours after drug administration. Cholesterol was dissolved in hot sunflower oil and administered to the animals through noninvasive probe into the stomach. The duration of administration amounted cholesterol from 1 to 90 days in subgroup A and 1 to 120 days in subgroup B. 2. After 30 days from the initiation of administration of cholesterol vitamin D3 (cholecalciferol) in a dose of 0.256 ml/kg was added to the diet of animals to enhance aortic lipidosis. Cholecalciferol was administered intragastrically via a probe from 31 till 60 days (Scheme A and B). […] In order to gain atherosclerotic lesions in aorta and atherosclerosis induction time reduction the animals were administered a dose of epinephrineequal to 0.04 mg/kg intravenously since 31 till 60 every five days (Scheme A and B).\nAnimal body weight was measured in accordance with standard procedures prior to the study, then—weekly (for calculating the volume of administration of the test compound and the reference drug) and immediately before euthanasia (on days 60 and 120)—to calculate the weight gain.\nThe administration was carried out intragastrically in accordance with standard procedures using atraumatic probe according to two treatment regimens every day at the same time."}, "[3]": {"experiment": "Mass coefficients of liver and pancreas of rabbits", "format": "in vivo, male rabbits of Californian breed", "conditions": "for Mass ratios, M ± SEM, Liver / Mass ratios, M ± SEM, Pancreas: dose 100 mg; for pancreatic mass coefficients relative to the control group: rosuvastatin 40 mg, AGA 100 mg"}, "[4]": {"system": "experimental rat hypercholesterolemia model", "experiment": "Biochemical blood analysis (drug toxicity parameters) in rat hypercholesterolemia model", "format": "in vivo, male rats of Wistar line", "procedure": "(§1) Evaluation of hypocholesterolemic efficacy and safety of pharmaceutical combination was performed in vivo in experimental rat hypercholesterolemia model.\n(§2) For 90 days the studied animals received hypercholesterol diet for pathology induction. The diet included Cholesterol+Cholic acid+Overheated fats (deep fat).\n(§3) Drugs were introduced intragastrically with an esophageal bougie daily on Day 31-90 of the study at the same time of day.\nBiochemical parameters and activity of serum enzymes (aspartate- and alanine aminotransferase, creatine phosphokinase, urea, serum amylase, total bilirubin, direct bilirubin, indirect bilirubin, serum glucose, cations K^+, Na^+).\n1.0-1.84 ml blood samples for the study of biochemical parameters were taken from tail vein of rats. Blood samples were taken from the animals after 14-15-hour's fasting at same time of day (9.00-11.00). For biochemical parameters tests a Biochemical Analyzer A-25 (Biosystems, Spain) was used.\nVol. 4. pp. 1794-1798; Pearlman F C and Lee R T Y. Clin Chem 1974, 20, 447-453; Zoppi F et al, Peracino A., Fenili D., Marcovina S. and Ramella C. Giorn It Chim Cl. […] C. et al Clin Chem. 1974. Vol. 20. pp. 470-475; and in Meiattini F., et al, Clin Chem. 1978. Vol. 24. pp. 2161-2165 (total cholesterol); Warnick G R et al. Clin Chem 2001, 47, 1579-96 (HDL/LDL); Bucolo G and David H. Clin Chem. 1973.-Vol. 19. pp. 476-482; and in Fossati P. and, Prencipe L., Clin Chem. 1982. Vol. 28. pp. 2077-2080 (triglycerides); Trinder P. Ann Clin Biochem. 1969. Vol. 6. pp. 24-27)."}, "[5]": {"system": "experimental rat hypercholesterolemia model", "experiment": "Lipid spectrum of blood in experimental rat hypercholesterolemia model", "format": "in vivo, male rats of Wistar line", "conditions": "dose 108 mg", "procedure": "The animals used were male rats of Wistar line. […] The proposed model using rats as the experimental animals is a reproducible standard model for evaluation of hypocholesterolemic effect.\nas §1, §2\nFor 90 days the animals received the said ration ad libitum (30 g feed per animal). Development of hypercholesterolemia in animals was evaluated based on changes in lipid spectrum parameters on Day 30 of the study.\nas §3\nBiochemical parameters and activity of blood serum enzymes (total cholesterol (CHS), LDL-CHS, HDL-CHS, triglycerides.\n1.0-1.84 ml blood samples for the study of biochemical parameters were taken from tail vein of rats. Blood samples were taken from the animals after 14-15-hour's fasting at same time of day (9.00-11.00). For biochemical parameters tests a Biochemical Analyzer A-25 (Biosystems, Spain) was used. […]"}, "[6]": {"conditions": "(organ weight/animal body weight)×100%, Day 90 of study, dose 108 mg"}, "[7]": {"conditions": "M ± m, RV + AGA 10 + 108 mg, RV 10 mg, AGA 108 mg"}, "[8]": {"conditions": "Day 30 of treatment (Day 60 of study), dose 108 mg"}, "[9]": {"conditions": "blood, Day 60 of the treatment (Day 90 of the study), RV + AGA 10 + 108 mg, RV 10 mg, AGA 108 mg"}, "[10]": {"conditions": "blood, Day 60 of the treatment (Day 90 of the study), SV + AGA 20 + 108 mg, SV 20 mg, AGA 108 mg"}, "[11]": {"conditions": "Day 30 of treatment (Day 60 of study)"}, "[12]": {"conditions": "Day 60 of treatment (Day 90 of study)"}},
  "note": "Values joined by “and” are separate entries in the source; they are usually repeats but may differ in a detail not shown here. Equal entries are not always repeated.",
  "data": [
    {"smiles": "CC1(C)[C@@H](O[C@H]2O[C@H](C(=O)O)[C@@H](O)[C@H](O)[C@H]2O[C@@H]2O[C@H](C(=O)O)[C@@H](O)[C@H](O)[C@H]2O)CC[C@]2(C)[C@H]3C(=O)C=C4[C@@H]5C[C@@](C)(C(=O)O)CC[C@]5(C)CC[C@@]4(C)[C@]3(C)CC[C@@H]12.N", "note": "[AGA, Monoammonium glycyrrhizinate]", "values": [
      {"measurement": "weight coefficient, Pancreas", "setting": "[1]; [6]", "result": "0.21 ± 0.01^2"},
      {"measurement": "weight coefficient, Kidneys", "setting": "[1]; [6]", "result": "0.81 ± 0.02"},
      {"measurement": "weight coefficient, Liver", "setting": "[1]; [6]", "result": "4.40 ± 0.09"},
      {"measurement": "weight coefficient, Pancreas", "setting": "[1]; [7]", "result": "0.22 ± 0.01^2"},
      {"measurement": "weight coefficient, Kidneys", "setting": "[1]; [7]", "result": "0.81 ± 0.01"},
      {"measurement": "weight coefficient, Liver", "setting": "[1]; [7]", "result": "4.41 ± 0.08"},
      {"measurement": "Body weight", "setting": "[2]; Day 0 (Before the study), dose group 100 mg (Table 37)", "result": "2936 ± 150", "unit": "g"},
      {"measurement": "Body weight", "setting": "[2]; Day 28 (in the setting of pathology without treatment), dose group 100 mg (Table 37)", "result": "3369 ± 168", "unit": "g"},
      {"measurement": "Body weight", "setting": "[2]; Day 90 (in the setting of pathology with treatment), dose 100 mg (Table 37)", "result": "3955 ± 119", "unit": "g"},
      {"measurement": "body weight versus control animals", "setting": "[2]; Scheme B, day 120, rosuvastatin+AGA 20+200 mg, atorvastatin+AGA 20+100 mg, AGA 100 mg", "result": "significantly lower"},
      {"measurement": "Body weight, M ± SEM, Day 120 (in the setting of pathology with treatment)", "setting": "[2]; Scheme B, dose 100 mg", "result": "4150 ± 144^2 g"},
      {"measurement": "Body weight, M ± SEM, Day 0 (Before the study)", "setting": "[2]; Scheme B, dose 100 mg, baseline", "result": "2809 ± 145", "unit": "g"},
      {"measurement": "Body weight, M ± SEM, Day 56 (in the setting of pathology without treatment)", "setting": "[2]; Scheme B, dose 100 mg, before treatment", "result": "3569 ± 164", "unit": "g"},
      {"measurement": "Mass ratios, M ± SEM, Liver", "setting": "[3]; Scheme A", "result": "3.3 ± 0.1"},
      {"measurement": "Mass ratios, M ± SEM, Pancreas", "setting": "[3]; Scheme A", "result": "0.05 ± 0.003"},
      {"measurement": "pancreatic mass coefficients relative to the control group", "setting": "[3]; Scheme A", "result": "Statistically significant decrease"},
      {"measurement": "Mass ratios, M ± SEM, Liver", "setting": "[3]; Scheme B", "result": "3.0 ± 0.2"},
      {"measurement": "Mass ratios, M ± SEM, Pancreas", "setting": "[3]; Scheme B", "result": "0.06 ± 0.004^"},
      {"measurement": "pancreatic mass coefficients relative to the control group", "setting": "[3]; Scheme B", "result": "statistically significant decrease"},
      {"measurement": "ALT", "setting": "[4]; [8]", "result": 98, "unit": "U/l"},
      {"measurement": "AST", "setting": "[4]; [8]", "result": 130, "unit": "U/l"},
      {"measurement": "Amylase", "setting": "[4]; [8]", "result": 620, "unit": "U/l"},
      {"measurement": "Bilirubin direct", "setting": "[4]; [8]", "result": 2.1, "unit": "mg/dL"},
      {"measurement": "Bilirubin indirect", "setting": "[4]; [8]", "result": 1.8, "unit": "mg/dL"},
      {"measurement": "Bilirubin total", "setting": "[4]; [8]", "result": 4.1, "unit": "mg/dL"},
      {"measurement": "CPK", "setting": "[4]; [8]", "result": "310 U/l and 312 U/l"},
      {"measurement": "Glucose", "setting": "[4]; [8]", "result": 112, "unit": "mg/dL"},
      {"measurement": "Potassium", "setting": "[4]; [8]", "result": 2.7, "unit": "mM"},
      {"measurement": "Sodium", "setting": "[4]; [8]", "result": 120, "unit": "mmol"},
      {"measurement": "Urea", "setting": "[4]; [8]", "result": 6.8, "unit": "mmol/L"},
      {"measurement": "ALT", "setting": "[4]; [9]", "result": 100, "unit": "U/l"},
      {"measurement": "AST", "setting": "[4]; [9]", "result": 131, "unit": "U/l"},
      {"measurement": "Amylase", "setting": "[4]; [9]", "result": 600, "unit": "U/l"},
      {"measurement": "Bilirubin direct", "setting": "[4]; [9]", "result": 2.3, "unit": "mg/dL"},
      {"measurement": "Bilirubin indirect", "setting": "[4]; [9]", "result": 1.9, "unit": "mg/dL"},
      {"measurement": "Bilirubin total", "setting": "[4]; [9]", "result": 2.9, "unit": "mg/dL"},
      {"measurement": "CPK", "setting": "[4]; [9]", "result": 310, "unit": "U/l"},
      {"measurement": "Glucose", "setting": "[4]; [9]", "result": 110, "unit": "mg/dL"},
      {"measurement": "Potassium", "setting": "[4]; [9]", "result": 3.2, "unit": "mM"},
      {"measurement": "Sodium", "setting": "[4]; [9]", "result": 122, "unit": "mmol"},
      {"measurement": "Urea", "setting": "[4]; [9]", "result": 5.5, "unit": "mmol/L"},
      {"measurement": "ALT", "setting": "[4]; [10]", "result": 100, "unit": "U/l"},
      {"measurement": "AST", "setting": "[4]; [10]", "result": 131, "unit": "U/l"},
      {"measurement": "Amylase", "setting": "[4]; [10]", "result": 600, "unit": "U/l"},
      {"measurement": "Bilirubin direct", "setting": "[4]; [10]", "result": 2.3, "unit": "mg/dL"},
      {"measurement": "Bilirubin indirect", "setting": "[4]; [10]", "result": 1.9, "unit": "mg/dL"},
      {"measurement": "Bilirubin total", "setting": "[4]; [10]", "result": 2.9, "unit": "mg/dL"},
      {"measurement": "CPK", "setting": "[4]; [10]", "result": 310, "unit": "U/l"},
      {"measurement": "Glucose", "setting": "[4]; [10]", "result": 110, "unit": "mg/dL"},
      {"measurement": "Potassium", "setting": "[4]; [10]", "result": 3.2, "unit": "mM"},
      {"measurement": "Sodium", "setting": "[4]; [10]", "result": 122, "unit": "mmol"},
      {"measurement": "Urea", "setting": "[4]; [10]", "result": 5.5, "unit": "mmol/L"},
      {"measurement": "HDL CHS", "setting": "[5]; [11]", "result": "0.53 ± 0.05", "unit": "mmol/L"},
      {"measurement": "LDL CHS", "setting": "[5]; [11]", "result": "4.40 ± 0.4", "unit": "mmol/L"},
      {"measurement": "TG", "setting": "[5]; [11]", "result": "1.5 ± 0.11", "unit": "mmol/L"},
      {"measurement": "Total CHS", "setting": "[5]; [11]", "result": "5.8 ± 0.5", "unit": "mmol/L"},
      {"measurement": "HDL CHS", "setting": "[5]; [12]", "result": "0.63 ± 0.05", "unit": "mmol/L"},
      {"measurement": "LDL CHS", "setting": "[5]; [12]", "result": "3.80 ± 0.3", "unit": "mmol/L"},
      {"measurement": "TG", "setting": "[5]; [12]", "result": "1.30 ± 0.12", "unit": "mmol/L"},
      {"measurement": "Total CHS", "setting": "[5]; [12]", "result": "4.5 ± 0.4", "unit": "mmol/L"}
    ]}
  ]
}
